Measurements from patent publication US20240158446A1, “CYCLIC COMPOUND HAVING SELECTIVE INHIBITORY ACTION ON KRAS OVER HRAS AND NRAS” (CHUGAI SEIYAKU KABUSHIKI KAISHA, priority 2021, published 2024).
Where two headings read alike, the source gives them in different places. Where a SMILES comes first, the peptide text is derived from it. Bridges are numbered along the chain shown (N, C = ends). [ ]: non-standard residue; d: D form. The star is where a group is joined. hPhe(3-Cl-4-CF3) = N[C@@H](CCc1ccc(C(F)(F)F)c(Cl)c1)C(=O)O; NPrPhe(4-CF3) = CCCN[C@@H](Cc1ccc(C(F)(F)F)cc1)C(=O)O; NMeGly(cPent) = CN[C@H](C(=O)O)C1CCCC1; NEtLeu = CCN[C@@H](CC(C)C)C(=O)O; Gly(cBu) = N[C@H](C(=O)O)C1CCC1; NMeD = CN[C@@H](CC(=O)O)C(=O)O; NMeL = CN[C@@H](CC(C)C)C(=O)O; NEtAla = CCN[C@@H](C)C(=O)O; Morpholide = C1CN(*)CCO1; NMeA = CN[C@@H](C)C(=O)O; Ac5c = NC1(C(=O)O)CCCC1; Aze = O=C(O)[C@@H]1CCN1; NEtG = CCNCC(=O)O; Sar = CNCC(=O)O

Experiments:
[1] = molecular target: GDP-bound KRAS wild-type protein (Homo sapiens, UniProt P01116); assay: Binding to KRAS by surface plasmon resonance (SPR), Single Cycle Kinetics; conditions: GDP-bound KRAS wild-type protein, read-out: KRAS KD
Sequence of GDP-bound KRAS wild-type protein (P01116 whole entry): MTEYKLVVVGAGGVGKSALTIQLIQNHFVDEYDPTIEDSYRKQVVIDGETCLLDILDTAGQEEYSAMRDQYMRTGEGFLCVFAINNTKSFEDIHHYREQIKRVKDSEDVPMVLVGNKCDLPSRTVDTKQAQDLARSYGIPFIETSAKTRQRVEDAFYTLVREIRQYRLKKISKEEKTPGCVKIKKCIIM

[2] = molecular target: GDP-bound NRAS wild-type protein (Homo sapiens, UniProt P01111); assay: Binding to NRAS by surface plasmon resonance (SPR), Single Cycle Kinetics; conditions: SPR, GDP-bound NRAS wild-type protein vs GDP-bound KRAS wild-type protein
Sequence of GDP-bound NRAS wild-type protein (P01111 whole entry): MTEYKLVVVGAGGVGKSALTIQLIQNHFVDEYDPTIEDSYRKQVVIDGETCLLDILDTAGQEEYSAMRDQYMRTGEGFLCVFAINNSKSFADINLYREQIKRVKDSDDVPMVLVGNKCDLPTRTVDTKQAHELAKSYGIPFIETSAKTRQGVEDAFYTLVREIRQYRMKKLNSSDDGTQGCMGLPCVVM

[3] = molecular target: GDP-bound HRAS wild-type protein (Homo sapiens, UniProt P01112); assay: Binding to HRAS by surface plasmon resonance (SPR), Single Cycle Kinetics; conditions: SPR, GDP-bound HRAS wild-type protein vs GDP-bound KRAS wild-type protein
Sequence of GDP-bound HRAS wild-type protein (P01112 whole entry): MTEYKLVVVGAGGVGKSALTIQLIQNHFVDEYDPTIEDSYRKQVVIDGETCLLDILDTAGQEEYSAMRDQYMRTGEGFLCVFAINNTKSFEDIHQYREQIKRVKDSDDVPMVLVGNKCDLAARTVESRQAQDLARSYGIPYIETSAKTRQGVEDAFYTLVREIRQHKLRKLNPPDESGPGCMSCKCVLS

[4] = SPR Single Cycle Kinetics, 1:1 binding model

Structure (SMILES)	Kd ([1]; SPR, Single Cycle Kinetics)	NRAS/KRAS (ratio of KD value for NRAS to KD value for KRAS) [2]	HRAS/KRAS (ratio of KD value for HRAS to KD value for KRAS) [3]	Kd [1, 4]	NRAS/KRAS (ratio of KD value with respect to NRAS to KD value with respect to KRAS) [2]	HRAS/KRAS (ratio of KD value with respect to HRAS to KD value with respect to KRAS) [3]
CCO[C@@H]1C[C@H]2C(=O)NC3(CCC3)C(=O)N(C)[C@@H](C3CCCC3)C(=O)N(C)[C@H](C(=O)N(C)C)CC(=O)N(C)[C@@H](Cc3cccc(F)c3)C(=O)N[C@@H]([C@@H](C)CC)C(=O)N(C)CC(=O)N(C)[C@H]3C/C=C\CCN(C3=O)[C@@H](Cc3ccc(C(F)(F)F)cc3)C(=O)N(C)CC(=O)N[C@@H](CCc3cc(F)c(C(F)(F)F)c(F)c3)C(=O)N2C1 [PP1126, (2S,8S,12R,14S,20S,23S,27S,30S,36S,38Z)-20-cyclopentyl-8-[2-[3,5-difluoro-4-(trifluoromethyl)phenyl]ethyl]-12-ethoxy-27-[(3-fluorophenyl)methyl]-N,N,4,19,22,26,32,35-octamethyl-30-[(1S)-1-methylpropyl]-3,6,9,15,18,21,25,28,31,34,42-undecaoxo-2-[[4-(trifluoromethyl)phenyl]methyl]spiro[1,4,7,10,16,19,22,26,29,32,35-undecazatricyclo[34.5.1.0^10,14]dotetracont-38-ene-17,1′-cyclobutane]-23-carboxamide]	0.089 nM	A (a compound having 10 or more and less than 20 is denoted as A)	A (a compound having 10 or more and less than 20 is denoted as A)			
CCCN1CC(=O)N(C)[C@H]2C/C=C\CCN(C2=O)[C@@H](Cc2ccc(C)cc2)C(=O)N(C)CC(=O)N[C@@H](CCc2ccc(C(F)(F)F)c(OC)c2)C(=O)N2C[C@H](OCC)C[C@H]2C(=O)NC2(CC(C)(C)C2)C(=O)N(C)[C@@H](C2CCCC2)C(=O)N(C)[C@H](C(=O)N(C)C)CC(=O)N(C)[C@@H](CC)C(=O)N[C@@H]([C@@H](C)CC)C1=O [PP2096]	0.42 nM	A (a compound having 10 or more and less than 20 is denoted as A)	A (a compound having 10 or more and less than 20 is denoted as A)			
CCC[C@H]1C(=O)N[C@@H](C2CCCC2)C(=O)N(C)CC(=O)N(C)[C@H]2C/C=C\CCN(C2=O)[C@@H](Cc2ccc(C)cc2)C(=O)N(C)CC(=O)N[C@@H](CCc2cc(F)c(C(F)(F)F)c(F)c2)C(=O)N2C[C@H](OCC)C[C@H]2C(=O)NC2(CC(C)(C)C2)C(=O)N(C)[C@@H](CC(C)(C)C)C(=O)N(C)[C@H](C(=O)N(C)C)CC(=O)N1C [PP2989]	0.087 nM	AA (a compound having 20 or more is denoted as AA)	A (a compound having 10 or more and less than 20 is denoted as A)			
CCCN1C(=O)[C@@H]2CCN2C(=O)[C@H](C)N(C)C(=O)[C@H]([C@@H](C)CC)NC(=O)[C@H](CC(C)C)N(CC)C(=O)C[C@@H](C(=O)N2CCOCC2)N(C)C(=O)[C@H](C2CCCC2)N(C)C(=O)C2(CCCC2)NC(=O)[C@@H]2CCCN2C(=O)[C@H](CCc2ccc(C(F)(F)F)c(Cl)c2)NC(=O)CN(C)C(=O)[C@@H]1Cc1ccc(C(F)(F)F)cc1 [PP0151] ([NEtLeu]I[NMeA][Aze][NPrPhe(4-CF3)][Sar][hPhe(3-Cl-4-CF3)]P[Ac5c][NMeGly(cPent)][NMeD]-Morpholide; lactam N-11)		C (A compound having a KD ratio of 0.1 or more and less than 3 is denoted as C)	C (A compound having a KD ratio of 0.1 or more and less than 3 is denoted as C)	0.5 nM		
CC[C@H](C)[C@@H]1NC(=O)[C@H](CC(C)C)N(C)C(=O)C[C@@H](C(=O)N2CCOCC2)N(C)C(=O)[C@H](C2CCCC2)N(C)C(=O)C2(CCCC2)NC(=O)[C@@H]2CCCN2C(=O)[C@H](CCc2cc(F)c(C(F)(F)F)c(F)c2)NC(=O)CN(C)C(=O)[C@H](Cc2ccc(C(F)(F)F)cc2)N2CCCC[C@@H](C2=O)N(C)C(=O)CN(CC)C1=O [PP0545]				0.24 nM	B (a compound having 3 or more and less than 10 is denoted as B)	B (a compound having 3 or more and less than 10 is denoted as B)
CCO[C@@H]1C[C@H]2C(=O)NC3(CC(C)(C)C3)C(=O)N(C)[C@@H](C3CCCC3)C(=O)N(C)[C@H](C(=O)N(C)CC)CC(=O)N(C)[C@@H](C(C)C)C(=O)N[C@@H]([C@@H](C)CC)C(=O)N(C)CC(=O)N(C)[C@H]3C/C=C\CCN(C3=O)[C@@H](Cc3ccc(C(F)(F)F)cc3)C(=O)N(C)CC(=O)N[C@@H](CCc3cc(F)c(C(F)(F)F)c(F)c3)C(=O)N2C1 [PP2034]	0.19 nM	A (a compound having 10 or more and less than 20 is denoted as A)	A (a compound having 10 or more and less than 20 is denoted as A)			
CCCN1C(=O)[C@@H]2CCN2C(=O)[C@H](C)N(CC)C(=O)[C@H]([C@@H](C)CC)NC(=O)[C@H](CC(C)C)N(C)C(=O)C[C@@H](C(=O)N2CCOCC2)N(C)C(=O)[C@H](C2CCCC2)N(C)C(=O)C2(CCCC2)NC(=O)[C@@H]2CCCN2C(=O)[C@H](CCc2ccc(C(F)(F)F)c(Cl)c2)NC(=O)CN(C)C(=O)[C@@H]1Cc1ccc(C(F)(F)F)cc1 [PP0152] ([NMeL]I[NEtAla][Aze][NPrPhe(4-CF3)][Sar][hPhe(3-Cl-4-CF3)]P[Ac5c][NMeGly(cPent)][NMeD]-Morpholide; lactam N-11)		C (A compound having a KD ratio of 0.1 or more and less than 3 is denoted as C)	B (a compound having 3 or more and less than 10 is denoted as B)	2.8 nM		
C=CC[C@H]1C(=O)N[C@@H]([C@@H](C)CC)C(=O)N(C)CC(=O)N(C)[C@H]2CCCCCN(C2=O)[C@@H](Cc2ccc(C(F)(F)F)cc2)C(=O)N(C)CC(=O)N[C@@H](CCc2cc(F)c(C(F)(F)F)c(F)c2)C(=O)N2C[C@H](OCC)C[C@H]2C(=O)NC2(CCC2)C(=O)N(C)[C@@H](C2CCCC2)C(=O)N(C)[C@H](C(=O)N(C)C)CC(=O)N1C [PP0665]				0.24 nM	B (a compound having 3 or more and less than 10 is denoted as B)	B (a compound having 3 or more and less than 10 is denoted as B)
C=CCCC[C@H]1C(=O)N[C@@H]([C@@H](C)CC)C(=O)N(C)CC(=O)N(C)[C@H]2CCCCN(C2=O)[C@@H](Cc2ccc(C(F)(F)F)cc2)C(=O)N(C)CC(=O)N[C@@H](CCc2cc(F)c(C(F)(F)F)c(F)c2)C(=O)N2C[C@H](OCC)C[C@H]2C(=O)N[C@](C)(CC=C)C(=O)N(C)[C@@H](C2CCCC2)C(=O)N(C)[C@H](C(=O)N2CCOCC2)CC(=O)N1C [PP0876]	0.4 nM	C (A compound having a KD ratio of 0.1 or more and less than 3 is denoted as C)	C (A compound having a KD ratio of 0.1 or more and less than 3 is denoted as C)			
CCC[C@H]1C(=O)N[C@@H]([C@@H](C)CC)C(=O)N2CCC[C@H]2C(=O)N(C)[C@H]2C/C=C\CCN(C2=O)[C@@H](Cc2ccc(C)cc2)C(=O)N(C)CC(=O)N[C@@H](CCc2ccc(C(F)(F)F)c(OC)c2)C(=O)N2C[C@H](OCC)C[C@H]2C(=O)N(C)C2(CCC2)C(=O)N(C)[C@@H](C2CCCC2)C(=O)N(C)[C@H](C(=O)N(C)C)CC(=O)N1C [PP2332]	0.1 nM	A (a compound having 10 or more and less than 20 is denoted as A)	B (a compound having 3 or more and less than 10 is denoted as B)			
CCCN1C(=O)CN(C)C(=O)CN(CC)C(=O)[C@H](C2CCC2)NC(=O)[C@H](CC(C)C)N(C)C(=O)C[C@@H](C(=O)N2CCOCC2)N(C)C(=O)[C@H](C2CCCC2)N(C)C(=O)C2(CCCC2)NC(=O)[C@@H]2CCCN2C(=O)[C@H](CCc2ccc(C(F)(F)F)c(Cl)c2)NC(=O)CN(C)C(=O)[C@@H]1Cc1ccc(C(F)(F)F)cc1 [PP0292] ([NMeL][Gly(cBu)][NEtG][Sar][NPrPhe(4-CF3)][Sar][hPhe(3-Cl-4-CF3)]P[Ac5c][NMeGly(cPent)][NMeD]-Morpholide; lactam N-11)		B (a compound having 3 or more and less than 10 is denoted as B)	C (A compound having a KD ratio of 0.1 or more and less than 3 is denoted as C)	0.54 nM		
C=CCN1CC(=O)N(C)[C@H]2C/C=C\CCN(C2=O)[C@@H](Cc2ccc(C(F)(F)F)cc2)C(=O)N(C)CC(=O)N[C@@H](CCc2cc(F)c(C(F)(F)F)c(F)c2)C(=O)N2C[C@H](OCC)C[C@H]2C(=O)NC2(CC(C)(C)C2)C(=O)N(C)[C@@H](C2CCCC2)C(=O)N(C)[C@H](C(=O)N(C)C)CC(=O)N(C)[C@@H](CCC)C(=O)N[C@@H]([C@@H](C)CC)C1=O [PP2102]	0.16 nM	A (a compound having 10 or more and less than 20 is denoted as A)	A (a compound having 10 or more and less than 20 is denoted as A)			
